Literature values as cited in patent EP1368050B1, “VIRUS DERIVED ANTIMICROBIAL PEPTIDES” (priority 2001, dated 2008).
Residues, ends and D or L forms follow the SMILES beside them.

Tests used:
Pseudomonas aeruginosa = details: 1x10^5 colony-forming units; cited from earlier work
[1] = system: Ca^2+-saturated calmodulin; details: host cell Ca^2+-saturated calmodulin; cited from earlier work
Staphylococcus aureus = details: 1x10^5 colony-forming units; cited from earlier work

CC[C@H](C)[C@H](NC(=O)[C@H](C)NC(=O)[C@H](CCCNC(=N)N)NC(=O)[C@H](CS)NC(=O)[C@H](C)NC(=O)CNC(=O)[C@H](CCC(N)=O)NC(=O)[C@@H](NC(=O)[C@@H](NC(=O)[C@H](CCC(=O)O)NC(=O)[C@@H](NC(=O)[C@@H](NC(=O)[C@@H](N)CCCNC(=N)N)C(C)C)[C@@H](C)CC)C(C)C)C(C)C)C(=O)N[C@@H](CCCNC(=N)N)C(=O)N[C@@H](Cc1c[nH]cn1)C(=O)N[C@H](C(=O)N1CCC[C@H]1C(=O)N[C@@H](CCCNC(=N)N)C(=O)N[C@@H](CCCNC(=N)N)C(=O)N[C@H](C(=O)N[C@@H](CCCNC(=N)N)C(=O)N[C@@H](CCC(N)=O)C(=O)NCC(=O)N[C@@H](CC(C)C)C(=O)N[C@@H](CCC(=O)O)C(=O)N[C@@H](CCCNC(=N)N)C(=O)N[C@H](C(=O)N[C@@H](CC(C)C)C(=O)O)[C@@H](C)CC)[C@@H](C)CC)[C@@H](C)CC [LLP1] (H-RVIEVVQGACRAIRHIPRRIRQGLERIL-OH; N-terminus and C-terminus assumed)
time to nearly sterilize a suspension (Pseudomonas aeruginosa): ≤ 60 s
affinity for calmodulin [1]: near nanomolar affinity
time to nearly sterilize a suspension (Staphylococcus aureus): ≤ 60 s
